Experimental data as given in patent US9023398B2, “Method for improving the aqueous solubility of poorly-soluble substances” (Kabushiki Kaisha Sangi, priority 2009, dated 2015).
“And” between values parts separate entries of the source, which are not always exact repeats. Equal values may be shown once.

Legend:
[1] = Dissolution test of poorly-soluble substances using distilled water; format: physicochemical
[2] = Dissolution test of poorly-soluble substances using 2nd fluid for disintegration test (pH 6.8) of the Japanese Pharmacopoeia; format: physicochemical
Procedure: From initiation of the test, the mixed solution was stirred with a stirrer having a length of 15 mm. The rotation number of the stirrer was 120 rpm, and all of the tests were conducted in a thermostat at 37±0.5° C. Two types of test solutions, namely, distilled water and 2nd fluid for disintegration test (pH 6.8) of the Japanese Pharmacopoeia were used. As such 2nd fluid for disintegration test of the Japanese Pharmacopoeia, a solution prepared by diluting the 10-fold concentration solution of Kanto Kagaku Co., Ltd. with distilled water was used.
A comparative test was carried out in the same manner as that described above with the exception that a poorly-soluble substance or the like was used in an amount equal to that of a substance with improved aqueous solubility, instead of the substance with improved aqueous solubility.
1 mL of the solution was sampled in an Eppendorf centrifuge tube, 1, 3, 10, 30, 60, 180 and 360 minutes after initiation of the test. The thus sampled solution was centrifuged at 12,000 rpm for 5 minutes. […] In the case of the comparative test, the poorly-soluble substance or the like, which had not been dissolved in the solution, was removed. An aliquot of this supernatant was immediately frozen. The frozen sample was freeze-dried, and it was then used as a sample in the measurement of the amount of the substance with improved aqueous solubility, which had been dissolved in the test solution. The dissolved poorly-soluble substance was measured mainly using a dual wavelength absorption photometer.

[3] = after dissolution test for 360 minutes, distilled water, 37±0.5° C.
[4] = after dissolution test for 360 minutes, Second disintegration test medium (pH 6.8), 37±0.5° C.
[5] = 2nd fluid for disintegration test, elution time 1 min
[6] = 2nd fluid for disintegration test, elution time 3 min
[7] = 2nd fluid for disintegration test, elution time 10 min
[8] = 2nd fluid for disintegration test, elution time 30 min
[9] = 2nd fluid for disintegration test, elution time 180 min
[10] = 2nd fluid for disintegration test, elution time 360 min
[11] = 2nd fluid for disintegration test, elution time 60 min
[12] = 2nd fluid for disintegration test, elution time 120 min

SMILES	Dissolved amount [1, 3] [µg/mL]	Dissolved amount [2, 4] [µg/mL]	Dissolved amount ([1]; water, elution time 3 min) [µg/mL]	Dissolved amount ([1]; water, elution time 10 min) [µg/mL]	Dissolved amount ([1]; water, elution time 360 min) [µg/mL]	Dissolved amount [2, 6] [µg/mL]	Dissolved amount [2, 7] [µg/mL]	Dissolved amount [2, 8] [µg/mL]	Dissolved amount [2, 10] [µg/mL]	Dissolved amount ([1]; water, elution time 30 min) [µg/mL]	Dissolved amount [2, 12] [µg/mL]	Dissolved amount ([1]; water, elution time 120 min) [µg/mL]	further results
COc1ccc2[nH]c([S+]([O-])Cc3ncc(C)c(OC)c3C)nc2c1 (stereo not drawn) [4-1, Omeprazole]	141.6	169.9											
Nc1nc(N)c2nc(-c3ccccc3)c(N)nc2n1 [6-1, Triamterene]	21.3	18.4											
CC(=O)Oc1ccccc1C(=O)O [Comparative Example 1-3, Aspirin]	3110.4	6552.7	2934.9	2985.3	3110.4	1020.4	5352.3	5963.6	8552.7				Dissolved amount ([1]; water, elution time 1 min): 1831.9 µg/mL; Dissolved amount ([1]; water, elution time 60 min): 3105.7 µg/mL; Dissolved amount ([1]; water, elution time 180 min): 3108.1 µg/mL; Dissolved amount [2, 5]: 252.7 µg/mL; Dissolved amount [2, 9]: 6458.1 µg/mL
CC(=O)O[C@]1(C(C)=O)CC[C@H]2[C@@H]3C=C(Cl)C4=CC(=O)CC[C@]4(C)[C@H]3CC[C@@]21C [Comparative Example 3-2, Chlormadinone acetate]	1.2	2.8	0.6	0.7	1.2	1.4	1.8	1.0	2.8	0.9			Dissolved amount ([1]; water, elution time 1 min): 0.6 µg/mL; Dissolved amount ([1]; water, elution time 60 min): 1.0 µg/mL; Dissolved amount ([1]; water, elution time 180 min): 1.1 µg/mL; Dissolved amount [2, 5]: 1.4 µg/mL; Dissolved amount [2, 11]: 1.0 µg/mL; Dissolved amount [2, 9]: 2.3 µg/mL
CC(C)(Sc1cc(C(C)(C)C)c(O)c(C(C)(C)C)c1)Sc1cc(C(C)(C)C)c(O)c(C(C)(C)C)c1 [Comparative Example 5-3, Probucol]	9.7	28.0	2.7	3.7	9.7	14.9	19.9	21.2	28.0	6.1			Dissolved amount ([1]; water, elution time 1 min): 0.7 µg/mL; Dissolved amount ([1]; water, elution time 60 min): 7.6 µg/mL; Dissolved amount ([1]; water, elution time 180 min): 8.3 µg/mL; Dissolved amount [2, 5]: 4.7 µg/mL; Dissolved amount [2, 11]: 21.8 µg/mL; Dissolved amount [2, 9]: 26.8 µg/mL
Cn1c(=O)c2[nH]cnc2n(C)c1=O [Comparative Example 15, Theophylline]			7897.9	8554.7	8691.5	8635.7	8596.0	8929.7	8906.2	8621.6			Dissolved amount ([1]; water, elution time 1 min): 7082.2 µg/mL; Dissolved amount ([1]; water, elution time 60 min): 8652.4 µg/mL; Dissolved amount ([1]; water, elution time 180 min): 8672.3 µg/mL; Dissolved amount [2, 5]: 8133.8 µg/mL; Dissolved amount [2, 11]: 9096.5 µg/mL; Dissolved amount [2, 9]: 8906.5 µg/mL
CC1(C)[C@@H](O[C@H]2O[C@H](C(=O)O)[C@@H](O)[C@H](O)[C@H]2O[C@@H]2O[C@H](C(=O)O)[C@@H](O)[C@H](O)[C@H]2O)CC[C@]2(C)[C@H]3C(=O)C=C4[C@@H]5C[C@@](C)(C(=O)O)CC[C@]5(C)CC[C@@]4(C)[C@]3(C)CC[C@@H]12 [Comparative Example 16, Ammonium Glycyrrhizinate]			4621.4		8948.1	7012.3	9096.3			6792.2			Dissolved amount ([1]; water, elution time 1 min): 2668.0 µg/mL; Dissolved amount ([1]; water, elution time 60 min): 7374.5 µg/mL; Dissolved amount ([1]; water, elution time 180 min): 8826.1 µg/mL; Dissolved amount [2, 5]: 5113.7 µg/mL
NC(N)=Nc1nc(CSCCC(N)=NS(N)(=O)=O)cs1 [Comparative Example 17, Famotidine]			1416.8	1502.6	1497.4	2286.6	2541.7	2600.9	2410.4	1566.8			Dissolved amount ([1]; water, elution time 1 min): 1162.9 µg/mL; Dissolved amount ([1]; water, elution time 60 min): 1565.8 µg/mL; Dissolved amount ([1]; water, elution time 180 min): 1509.8 µg/mL; Dissolved amount [2, 5]: 1980.2 µg/mL; Dissolved amount [2, 11]: 2667.9 µg/mL
COc1ccc(Cl)cc1C(=O)NCCc1ccc(S(=O)(=O)NC(=O)NC2CCCCC2)cc1 [compound 11, Glibenclamide]	6.4	8.0											
COc1cc(Cc2cnc(N)nc2N)cc(OC)c1OC [compound 13, Trimethoprim]	656.3	1321.9											
CCC1(c2ccccc2)C(=O)NCNC1=O [compound 14, Primidone]	180.3	335.2											
CN/C(=N/CCSCc1nc[nH]c1C)NC#N [compound 19, Cimetidine]						8676.7			8810.0		9475.2		Dissolved amount ([1]; Dissolution test using water, elution time 10 min): 8160.2 µg/mL; Dissolved amount ([1]; Dissolution test using water, elution time 30 min): 7564.5 µg/mL; Dissolved amount ([1]; Dissolution test using water, elution time 120 min): 7898.3 µg/mL; Dissolved amount ([1]; Dissolution test using water, elution time 360 min): 7166.4 µg/mL
COc1ccc2c(c1)c(CC(=O)O)c(C)n2C(=O)c1ccc(Cl)cc1 [compound 20, Indomethacin]			7.8	7.9	8.2	627.9	693.7	821.8	1114.4	8.0	928.5	8.5	
O=C1NC(=O)C(c2ccccc2)(c2ccccc2)N1 [compound 21, Phenyloin]			26.5	23.3	24.1	17.4	42.1	50.7	32.5		27.2		
NC(=O)N1c2ccccc2C=Cc2ccccc21 [compound 22, Carbamazepine]			291.2	234.8	153.0	346.6	352.2	413.9	199.3	214.3	282.1	159.5	
CC(=O)Nc1nnc(S(N)(=O)=O)s1 [compound 23, Acetazolamide]			1040.6	1238.7	1212.0	1331.6			1654.9	1244.8	1721.6	1251.4	
CC(=O)SC[C@@H](C)C(=O)N1CCC[C@H]1C(=O)N[C@@H](Cc1ccccc1)C(=O)O [compound 24, Alacepril]			526.2	805.6	996.5	2311.1		2525.0		931.2		994.9	
CCS(=O)(=O)CCn1c([N+](=O)[O-])cnc1C [compound 25, Tinidazole]			2973.2	3880.0	6207.6	4613.3	5425.9	5825.0	6133.3	4558.1	7003.0	6034.2	
CCn1cc(C(=O)O)c(=O)c2cc(F)c(N3CCNCC3)cc21 [compound 27, Norfloxacin]			455.9	523.1	395.5	688.7	767.1	744.1	694.7	492.3	721.6	470.7	
CC[C@H]1OC(=O)[C@H](C)[C@@H](O[C@H]2C[C@@](C)(OC)[C@@H](O)[C@H](C)O2)[C@H](C)[C@@H](O[C@@H]2O[C@H](C)C[C@H](N(C)C)[C@H]2O)[C@](C)(O)C[C@@H](C)C(=O)[C@H](C)[C@@H](O)[C@]1(C)O [compound 28, Erythromycin]			635.0	861.6	846.1		4984.2	5103.6	6044.7	944.7	5904.1	927.7	
CNC[C@H](O)c1ccc(O)c(O)c1 [compound 29, Epinephrine]													Dissolved amount [2]: 2001.7 µg/mL and 2061.7 µg/mL and 2129.3 µg/mL and 2102.5 µg/mL
O=[N+]([O-])O[C@H]1CO[C@H]2[C@@H]1OC[C@H]2O[N+](=O)[O-] [compound 30, Isosorbide Dinitrate]							7154.4	7134.1	7148.8	3490.4		3516.8	
